What was measured:
activated murine B cells = experiment: TMRM staining of mitochondrial membrane potential in activated murine B cells; assay type: cell-based, mouse; settings: 72 hours; for mitochondrial membrane potential (TMRM): substance alone
Experimental: (§1) For analysis of surface markers, cells were stained in PBS containing 1% (w/v) bovine serum albumin on ice for 30 minutes, with anti-IgG1 (RMG1-1, Biolegend), anti-CD19 (ID3, Biolegend) anti-B220 (RA3-6B2, Biolegend), anti-CD4 (GK1.5, Biolegend), anti-CD8 (53-6.7, Biolegend), anti-CD25 (PC16, Biolegend), anti-GL7 (GL-7, Biolegend), anti-CD95 (Jo2, BD Biosciences), anti-CD138 (281-2, Biolegend), anti-IgD (11-26c.2a, Biolegend), anti-PD-1 (J43, ThermoFisher), anti-IgM (II/41, ThermoFisher). Antigen specific GC response was detected with tetramer NP-phycoerythrin conjugated with PE (Biosearch Technologies). CXCR5 was stained with biotinylated anti-CXCR5 (2G8) followed by staining with streptavidin-conjugated PE (both from BD Biosciences). Cell viability was assessed using the Fixable Dye Ghost 510 (Tonbo Bioscience) or Annexin V cell apoptosis kit with 7-AAD (ThermoFisher) following the manufacturer's protocol. Phosflow staining for phospho-S6 (S235/236) was performed using Phosflow Fix/Perm kit (BD Biosciences). Mitochondrial potential was measured by staining with 20 nM TMRM (ThermoFisher) following manufacturer's instructions. Flow cytometry was performed on the LSR II, LSR Fortessa (BD Biosciences) or Attune NxT (ThermoFisher) cytometers, and analysis was performed using FlowJo software (Tree Star).

SCD = experiment: Fatty acid composition of fresh and activated B cells by LC-MS/MS; assay type: cell-based, mouse; settings: 100 nM SSI-4, 48 hours
MRL/MpJ-Faslpr mice = experiment: MRL/MpJ-Faslpr lupus mouse model fed SSI-4 chow; assay type: in vivo
Experimental: (§2) MRL/MpJ-Fas^lpr mice and B6 (C)-H2-Ab1^bm12/KhEgJ (bm12) mice were purchased from the Jackson Laboratory. Six weeks old female MRL/MpJ-Fas^lpr mice were treated with control chow or SSI-4 chow (60 mg/kg, on a two-week SSI-4 chow/control-chow alternating schedule) ad libitum for 15 weeks. Proteinuria was measured using Albustix strips (Siemens). Kidney histology was done using routine H&E staining. Thirty million splenocytes from 8 weeks old B6 (C)-H2-Ab1^bm12/KhEgJ (bm12) mice were transferred into C57BL/6 mice intraperitoneally. Mice were fed with control chow or SSI-4 chow (30 mg/kg, on an one-week SSI-4 chow/control-chow alternating schedule) ad libitum for 8 weeks.
(§3) For analysis of surface markers, cells were stained in PBS containing 1% (w/v) bovine serum albumin on ice for 30 minutes, with anti-B220 (RA3-6B2, Biolegend), anti-CD4 (GK1.5, Biolegend), anti-CD138 (281-2, Biolegend), anti-PD-1 (J43, ThermoFisher). CXCR5 was stained with biotinylated anti-CXCR5 (2G8) followed by staining with streptavidin-conjugated PE (both from BD Biosciences). Cell viability was assessed using the Fixable Dye Ghost 510 (Tonbo Bioscience) following the manufacturer's protocol. Flow cytometry was performed on the LSR II, LSR Fortessa (BD Biosciences) or Attune NxT (ThermoFisher) cytometers, and analysis was performed using FlowJo software (Tree Star).

[1] = system: C57BL/6 mice receiving bm12 splenocytes; experiment: bm12 splenocyte transfer lupus (cGvHD) model fed SSI-4 chow; assay type: in vivo, mouse; settings: SSI-4 chow 30 mg/kg
Experimental: as §2, §3

[2] = system: influenza A infected mice; experiment: Influenza A/PR8 infection of mice fed SSI-4 chow; assay type: in vivo, mouse
Experimental: For influenza virus infection, influenza A/PR8 strain (200 pfu/mouse) were diluted in FBS-free DMEM media on ice and inoculated in anesthetized mice through intranasal route. Sera were collected before and two weeks after infection for fatty acid component measurement. The mice were fed with control chow or SSI-4 chow for 1 week following influenza infection before switching to regular diet. The mediastinal lymph nodes were analyzed for GC B cell formation and Tfh differentiation. Mice were bred and maintained under specific pathogen-free conditions in Department of Comparative Medicine of Mayo Clinic with IACUC approval.
as §1
For NP specific antibodies detection in sera, 96-well plates (2596; Costar) were coated with 2 μg/mL NP23-BSA in PBS overnight. Plates were washed twice (0.05% Tween 20 in PBS), blocked with 5% blocking protein (Bio-Rad) for 1 hour, and washed twice, and serially diluted serum samples were added for 1.5 hours at 37° C. Plates were washed four times and horseradish peroxidase (HRP)-conjugated detection Abs for IgG (Bethyl Laboratories) and IgG1 (Bethyl Laboratories) were added for 1 hour at RT, washed four times, and tetramethylbenzidine (TMB) substrate was added. Reaction was stopped using 2N H2SO4 and read at 450 nm. Similarly, antibodies IgG, IgG1 and IgG2c specific to influenza A/PR8 strain in sera were measured with influenza virus coated plate.

Row | SMILES | mitochondrial membrane potential (TMRM) under SCD inhibition with exogenous OA (activated murine B cells; SSI-4 plus OA) | mitochondrial membrane potential (TMRM) (activated murine B cells) | accumulation of MUFAs (PO, OA) in activated B cells (SCD) | kidney histology (H&E) (MRL/MpJ-Faslpr mice; SSI-4 chow 60 mg/kg, alternating schedule) | proteinuria (MRL/MpJ-Faslpr mice; SSI-4 chow 60 mg/kg, two-week alternating schedule, from 6 weeks old, measured from 8 weeks old) | B cell proliferation measured by Ki-67 expression (MRL/MpJ-Faslpr mice; flow cytometry) | B cell metabolic activity measured by expression of CD98 (MRL/MpJ-Faslpr mice; flow cytometry MFI) | generation of CXCR5+PD-1+ follicular helper T cells [1] | generation of IgD-CD138+ plasma cells [1] | serum anti-dsDNA autoantibody level ([1]; one-week alternating schedule, 8 weeks, ELISA) | production of anti-influenza total IgG, IgG1 and IgG2c in sera ([2]; ELISA) | body weight loss in influenza A infected mice ([2]; SSI-4 chow for 1 week following infection vs control chow) | frequency of GC B cells in mediastinal lymph nodes ([2]; day 11 following infection) | CD138+ plasmablast formation ([2]; influenza infection) | expression of Bcl6 in B cells ([2]; mediastinal lymph nodes)
1 | CCCCCCCC/C=C\CCCCCCCC(=O)O [OA, oleic acid] | corrected | able to increase mitochondrial membrane potential | – | – | – | – | – | – | – | – | – | – | – | – | –
2 | CNC(=O)c1ccnc(NC(=O)N2CCC(Oc3ccccc3Cl)CC2)c1 [SSI-4, 2-{[4-(2-Chlorophenoxy)piperidine-1-carbonyl]amino}-N-methylpyridine-4-carboxamide] | – | reduced mitochondrial membrane potential | largely reversed it | reduced immune cell infiltration and inflammation | no increase of proteinuria | significantly reduced | significantly reduced | reduced | reduced | reduced | significantly dampened | substantially more severe weight loss | significantly reduced | did not affect | significantly reduced

From patent US11833144B2, “Treating autoimmune disease” (Mayo Foundation for Medical Education and Research, priority 2020, dated 2023)
